Measurements published in the supplement of paper PMC11061612.

Columns and labels:
Assay in all cases: Bliss excess, mean over the matrix (fraction); higher = more synergy
[1] = test system: BL-41 (Burkitt's Lymphoma)
Outline: (§1)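 After 24 hours at 37°C and 5% CO2 in 1536-well plates, cells in DMEM/F12 or RPMI plus 10% FBS received two-drug dose matrices for 72 hours. Viability came from CellTiter-Glo 2.0 luminescence and was scaled as inhibition, anchored at 0 by vehicle wells and at 1 by blank wells. Combination Emax is taken as the second-highest inhibition in the matrix, and Bliss excess as the observed combination effect less EA + EB − EA·EB, with EA and EB the single-agent effects.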

[2] = test system: CAMA-1 (Breast Carcinoma)
Outline: as §1

[3] = test system: DND-41 (T-Lymphoblastic Leukemia)
Outline: as §1

ES1 (Ewing's Sarcoma) = test system: ES1 (Ewing's Sarcoma)
Outline: as §1

ES8 (Ewing's Sarcoma) = test system: ES8 (Ewing's Sarcoma)
Outline: as §1

[4] = test system: HDQ-P1 (Breast Carcinoma)
Outline: as §1

[5] = test system: KCL-22 (Chronic Myelogenous Leukemia)
Outline: as §1

[6] = test system: L-540 (Hodgkin's Lymphoma)
Outline: as §1

LN-18 (Glioblastoma) = test system: LN-18 (Glioblastoma)
Outline: as §1

MEL-JUSO (Melanoma) = test system: MEL-JUSO (Melanoma)
Outline: as §1

[7] = test system: MFM-223 (Breast Carcinoma)
Outline: as §1

[8] = test system: MS751 (Cervical Carcinoma)
Outline: as §1

NCI-H2818 (Mesothelioma) = test system: NCI-H2818 (Mesothelioma)
Outline: as §1

[9] = test system: NCI-H847 (Small Cell Lung Carcinoma)
Outline: as §1

[10] = test system: SR (Other Blood Carcinomas)
Outline: as §1

[11] = test system: SU-DHL-8 (B-Cell Non-Hodgkin's Lymphoma)
Outline: as §1

[12] = test system: SW837 (Colorectal Carcinoma)
Outline: as §1

[13] = test system: TE-6 (Esophageal Squamous Cell Carcinoma)
Outline: as §1

U251 (Low Grade Glioma) = test system: U251 (Low Grade Glioma)
Outline: as §1

WM-115 (Melanoma) = test system: WM-115 (Melanoma)
Outline: as §1

SMILES	Bliss excess [1]	Bliss excess [2]	Bliss excess [3]	Bliss excess (ES1 (Ewing's Sarcoma))	Bliss excess (ES8 (Ewing's Sarcoma))	Bliss excess [4]	Bliss excess [5]	Bliss excess [6]	Bliss excess (LN-18 (Glioblastoma))	Bliss excess (MEL-JUSO (Melanoma))	Bliss excess [7]	Bliss excess [8]	Bliss excess (NCI-H2818 (Mesothelioma))	Bliss excess [9]	Bliss excess [10]	Bliss excess [11]	Bliss excess [12]	Bliss excess [13]	Bliss excess (U251 (Low Grade Glioma))	Bliss excess (WM-115 (Melanoma))
CN(CCO)CC[C@H](CSc1ccccc1)Nc1ccc(S(=O)(=O)NC(=O)c2ccc(N3CCC([C@@H](O)c4ccccc4-c4ccc(Cl)cc4)CC3)cc2)cc1S(=O)(=O)C(F)(F)F [AZD4320] + C[C@@H](Nc1cc(F)cc(F)c1)c1cc(C(=O)N(C)C)cc2c(=O)cc(N3CCOCC3)oc12 [AZD8186] (first compound max 1 µM, 7x7, partner max 3 µM)	0.0388	0.0218	0.0338	0.0591	0.0142	-0.0018	0.0307	0.068	0.0608	0.033	-0.0059	0.0982	-0.0232	0.0851	0.0428	-0.0714	-0.0491	0.0313	-0.0013	0.0755
CC1(C)CCC(CN2CCN(c3ccc(C(=O)NS(=O)(=O)c4ccc(NCC5CCOCC5)c([N+](=O)[O-])c4)c(Oc4cnc5[nH]ccc5c4)c3)CC2)=C(c2ccc(Cl)cc2)C1 [Venetoclax] + C[C@@H]1COCCN1C2=NC(=NC(=C2)C3(CC3)[S@](=N)(=O)C)C4=C5C=CNC5=NC=C4 [AZD6738] (first compound max 1 µM, 7x7, partner max 10 µM)	0.0001	-0.105	0.0191	-0.0268	0.004	-0.0327	-0.0088	0.028	-0.0469	-0.013	-0.0604	0.0094	-0.0458	0.0082	-0.0139	-0.0176	-0.003	-0.0127	-0.0405	-0.119
CCc1c2c(nc3ccc(O)cc13)-c1cc3c(c(=O)n1C2)COC(=O)[C@]3(O)CC [SN-38] + O=C(c1cc(Cc2n[nH]c(=O)c3ccccc23)ccc1F)N1CCN(C(=O)C2CC2)CC1 [Olaparib] (first compound max 0.3 µM, 7x7, partner max 10 µM)	0.0462	0.0287	0.0343	0.0779	0.0636	0.025	0.0525	0.0196	–	–	0.0054	0.053	0.0548	0.0304	0.0614	–	0.0302	–	–	0.0847
COc1nnc2ccc(N3CCC(c4ccc(OCCN5CCN(C)C(=O)[C@H]5C)cc4)CC3)nn12 [AZD5153] + Cn1cnc2c(F)c(Nc3ccc(Br)cc3Cl)c(C(=O)NOCCO)cc21 [Selumetinib] (first compound max 1 µM, 7x7, partner max 10 µM)	-0.0526	0.0022	0.0425	-0.0511	0.0303	-0.0697	0.0841	-0.0441	0.0152	0.0889	-0.0299	0.0385	-0.0031	–	-0.0614	0.0473	-0.0187	-0.0216	-0.0062	0.15
NC1(C(=O)N[C@@H](CCO)c2ccc(Cl)cc2)CCN(c2ncnc3[nH]ccc23)CC1 [Capivasertib] + Cn1cnc2c(F)c(Nc3ccc(Br)cc3Cl)c(C(=O)NOCCO)cc21 [Selumetinib] (first compound max 10 µM, 7x7, partner max 10 µM)	0.0106	0.0187	0.0293	0.0724	-0.0548	-0.0046	0.117	-0.0345	0.0373	0.0315	0.0276	0.0024	-0.0014	–	0.0682	-0.0214	-0.0357	0.0032	0.0099	0.071
C[C@@H](c1ccc2nccn2c1)n1nnc2ncc(-c3cnn(C)c3)nc21 [Savolitinib] + Cc1c2c(nn1C)CSCc1cc(n(C)n1)CSc1cc(c3ccccc3c1)OCCCc1c(C(=O)O)n(C)c3c-2c(Cl)ccc13 [AZD5991] (first compound max 1 µM, 7x7, partner max 1 µM)	-0.0318	-0.0136	-0.0188	-0.0152	0.0495	-0.0456	-0.0134	-0.0054	0.005	-0.0269	-0.0228	-0.0701	-0.0343	–	0.0023	-0.0425	-0.0644	-0.0541	-0.0691	-0.037
COc1nnc2ccc(N3CCC(c4ccc(OCCN5CCN(C)C(=O)[C@H]5C)cc4)CC3)nn12 [AZD5153] + Cc1c2c(nn1C)CSCc1cc(n(C)n1)CSc1cc(c3ccccc3c1)OCCCc1c(C(=O)O)n(C)c3c-2c(Cl)ccc13 [AZD5991] (first compound max 1 µM, 7x7, partner max 1 µM)	-0.025	0.0283	0.0181	-0.037	0.0357	-0.0667	-0.0633	0.0062	-0.0751	-0.0507	-0.0258	0.0038	0.0183	–	-0.0275	-0.0131	-0.0411	-0.0701	-0.0253	-0.0256
CC(=O)c1c(C)c2cnc(Nc3ccc(N4CCNCC4)cn3)nc2n(C2CCCC2)c1=O [Palbociclib] + Cc1c2c(nn1C)CSCc1cc(n(C)n1)CSc1cc(c3ccccc3c1)OCCCc1c(C(=O)O)n(C)c3c-2c(Cl)ccc13 [AZD5991] (first compound max 10 µM, 7x7, partner max 1 µM)	-0.0691	-0.0525	0.0043	-0.0169	0.0838	-0.0396	0.0403	-0.0063	-0.0153	-0.103	-0.0784	-0.0294	-0.0386	–	0.0286	-0.22	-0.0582	-0.0272	-0.0479	-0.0282
COc1cc2ncnc(Nc3ccc(F)c(Cl)c3)c2cc1OCCCN1CCOCC1 [Gefitinib] + CC(C)n1c(=O)n(C)c2cnc3cc(F)c(-c4ccc(OCCCN5CCCCC5)nc4)cc3c21 [AZD1390] (first compound max 10 µM, 7x7, partner max 0.3 µM)	0.003	-0.0434	-0.0309	-0.0432	-0.0364	-0.114	-0.0573	-0.0591	-0.033	-0.0857	-0.0681	-0.0614	-0.0707	–	-0.0109	-0.0157	-0.06	-0.117	-0.0624	-0.0856
COc1nnc2ccc(N3CCC(c4ccc(OCCN5CCN(C)C(=O)[C@H]5C)cc4)CC3)nn12 [AZD5153] + CC1(C)CCC(CN2CCN(c3ccc(C(=O)NS(=O)(=O)c4ccc(NCC5CCOCC5)c([N+](=O)[O-])c4)c(Oc4cnc5[nH]ccc5c4)c3)CC2)=C(c2ccc(Cl)cc2)C1 [Venetoclax] (first compound max 1 µM, 7x7, partner max 1 µM)	-0.0551	-0.0564	0.0352	-0.0896	-0.0594	-0.0307	-0.0343	-0.0012	0.0348	-0.0547	-0.0295	-0.0752	-0.0487	–	-0.0209	-0.0486	-0.0514	-0.103	-0.0872	-0.0717
COc1nnc2ccc(N3CCC(c4ccc(OCCN5CCN(C)C(=O)[C@H]5C)cc4)CC3)nn12 [AZD5153] + CCN(CCO)CCCOc1ccc2c(Nc3cc(CC(=O)Nc4cccc(F)c4)[nH]n3)ncnc2c1 [AZD2811] (first compound max 1 µM, 7x7, partner max 1 µM)	-0.0369	-0.0311	0.0529	-0.0504	-0.0119	-0.008	0.0425	-0.0477	-0.107	-0.0003	-0.0622	0.0349	-0.0083	–	-0.0672	0.107	-0.0663	-0.0501	0.0064	-0.0814
CC(=O)c1c(C)c2cnc(Nc3ccc(N4CCNCC4)cn3)nc2n(C2CCCC2)c1=O [Palbociclib] + CC1(C)CCC(CN2CCN(c3ccc(C(=O)NS(=O)(=O)c4ccc(NCC5CCOCC5)c([N+](=O)[O-])c4)c(Oc4cnc5[nH]ccc5c4)c3)CC2)=C(c2ccc(Cl)cc2)C1 [Venetoclax] (first compound max 10 µM, 7x7, partner max 1 µM)	-0.0842	-0.0381	-0.0292	-0.0214	0.0365	-0.0555	0.0057	-0.0852	0.0187	-0.0309	0.0031	-0.0251	-0.0146	–	-0.0245	-0.0096	-0.0671	-0.0255	-0.0348	-0.0708
COc1nnc2ccc(N3CCC(c4ccc(OCCN5CCN(C)C(=O)[C@H]5C)cc4)CC3)nn12 [AZD5153] + C[C@@H]1COCCN1C2=NC(=NC(=C2)C3(CC3)[S@](=N)(=O)C)C4=C5C=CNC5=NC=C4 [AZD6738] (first compound max 1 µM, 7x7, partner max 10 µM)	-0.0562	-0.0091	0.0628	-0.015	-0.0096	0.0527	-0.0188	-0.0623	-0.02	0.0624	-0.0011	0.0833	-0.0383	–	-0.016	0.0042	-0.0066	-0.0503	0.0544	-0.0276
COc1nnc2ccc(N3CCC(c4ccc(OCCN5CCN(C)C(=O)[C@H]5C)cc4)CC3)nn12 [AZD5153] + C=CCn1c(=O)c2cnc(Nc3ccc(N4CCN(C)CC4)cc3)nc2n1-c1cccc(C(C)(C)O)n1 [AZD1775] (first compound max 1 µM, partner max 1 µM)	-0.0454	-0.0121	-0.0027	-0.0845	-0.0563	-0.041	-0.0578	-0.0433	-0.0502	0.0131	-0.0679	0.064	0.0033	–	-0.074	0.0014	-0.0653	-0.0166	0.0398	-0.11
Cn1cnc2c(F)c(Nc3ccc(Br)cc3Cl)c(C(=O)NOCCO)cc21 [Selumetinib] + CCN(CCO)CCCOc1ccc2c(Nc3cc(CC(=O)Nc4cccc(F)c4)[nH]n3)ncnc2c1 [AZD2811] (first compound max 10 µM, 7x7, partner max 1 µM)	0.0338	-0.0227	0.0298	0.0048	-0.0089	-0.0538	0.0941	-0.0634	-0.0192	-0.0206	-0.0363	0.055	-0.0106	–	0.0128	-0.0216	-0.0311	-0.0282	-0.034	-0.042
